The results in this text go back to ChEMBL document CHEMBL1131995, “Synthesis and pharmacological profile of 1-aryl-3-substituted pyrrolo[3,2-c]quinolines” (Bioorg Med Chem Lett, 1999).

Bounds are passed on as bounds.

One test deals with Rattus norvegicus. Description: Compound was tested in vivo for gastric antisecretory activity after 5 hr of pylorus ligation of SD rat. The note with it: Stomach. Type of test: functional.
The target of test [1] is Potassium-transporting ATPase (Oryctolagus cuniculus). Description: Compound was tested in vitro for H+/K+ ATPase activity in rabbit stomach preparations.

In the test with Rattus norvegicus, `COc1cccc2c1ncc1c(C)cn(-c3ccccc3C)c12` displayed a median effective dose (ED50) of 13 mg/kg. For the same compound, it took 8.2 µM to reach half-maximal inhibition in test [1] (IC50).

Regarding `COc1cccc2c1nc(C)c1c(C)cn(-c3ccc(F)cc3C)c12`, the IC50 in test [1] worked out at 72 µM.

The compound `COc1cccc2c1nc(C)c1c(C)cn(-c3ccccc3C)c12` had an IC50 in test [1] greater than 100 µM.

In the test on Rattus norvegicus, `COc1cccc2c1ncc1c(C(C)C)cn(-c3ccccc3C)c12` displayed an ED50 of 90 mg/kg. The compound further showed an IC50 in test [1] of 17 µM.

`Cc1ccccc1-n1cc(C)c2cnc3c(OC(F)(F)F)cccc3c21` had an IC50 in test [1] greater than 100 µM.

In the test on Rattus norvegicus, `CCc1cn(-c2ccc(O)cc2C)c2c1cnc1c(OC)cccc12` had an ED50 of 59 mg/kg. Also, the IC50 in test [1] is 4.8 µM.

In test [1], `COc1cccc2c1ncc1c(CCO)cn(-c3ccc(F)cc3C)c12` gave an IC50 greater than 100 µM.

`COc1cccc2c1ncc1c(C)cn(-c3ccc(F)cc3C)c12` registered an ED50 with Rattus norvegicus of 10 mg/kg. The compound also returned an IC50 in test [1] of 14 µM.

Regarding `COc1cccc2c1ncc1c(CO)cn(-c3ccc(F)cc3C)c12`, the IC50 in test [1] was greater than 100 µM.

Take `COc1ccc2[nH]c([S+]([O-])Cc3ncc(C)c(OC)c3C)nc2c1` (stereo unspecified) [OMEPRAZOLE]: the 50% effect level with Rattus norvegicus (ED50) was put at a dose of 3.2 mg/kg.

`COc1cccc2c1ncc1c(C(C)C)cn(-c3ccc(O)cc3C)c12`: the ED50 in the test on Rattus norvegicus came to 49 mg/kg. For the same compound, in test [1], half-maximal inhibition (IC50) required 7.2 µM.

`CCc1cn(-c2ccc(F)cc2C)c2c1cnc1c(OC)cccc12`: the ED50 in the test with Rattus norvegicus amounted to 13 mg/kg. The IC50 in test [1] came to 5.7 µM.

Regarding `Cc1ccccc1-n1cc(C)c2cnc3c(O)cccc3c21`, the ED50 with Rattus norvegicus is 58 mg/kg. Moreover, the IC50 in test [1] was 4.8 µM.

`COc1cccc2c1ncc1c(CO)cn(-c3ccccc3C)c12` yielded an IC50 in test [1] of 100 µM.

In the test with Rattus norvegicus, `CCCC(=O)c1cnc2c(OC)cccc2c1Nc1ccccc1C` gave an ED50 of 20 mg/kg. For the same compound, in test [1], the IC50 worked out at 18 µM.

`COc1cccc2c1ncc1c(CCO)cn(-c3ccccc3C)c12`: the IC50 in test [1] came to 80 µM.

`COc1cccc2c1ncc1c(C)cn(-c3ccc(OC(C)=O)cc3C)c12` registered an ED50 with Rattus norvegicus of 47 mg/kg. Also, the IC50 in test [1] is 3.4 µM.
